US10653699B2, “Controlled-release tozadenant formulations” (BIOTIE THERAPIES, INC., priority 2015, dated 2020)

What was measured:
[1] = Physical characterization of tozadenant API; format: physicochemical
Excerpt: The active pharmaceutical ingredient (API) was very fine, with ˜60% fines. […] The observed loss upon drying indicated a low amount of water and volatile matter in API.

[2] = Treatment-emergent adverse events and tozadenant plasma Cmax by dose in patients (Table 19); format: in vivo, human; conditions: for Cmax at 6 week / Cmax: human, oral; for Cmax at 6 week: maximum plasma concentration in group of 63-75 patients, time since last dose unknown; for Cmax: plasma, read-out: Cmax (ng/mL) at ~5 hr postdose at Day 1
Excerpt: Table 19 summarizes the dose response of AEs observed in patients taking tozadenant alongside the plasma Cmax. A clear trend of increasing AEs and discontinuation of therapy is seen with doses that result in higher tozadenant Cmax. A controlled-release formulation can be used to achieve the drug levels (Css) that are therapeutically effective while avoiding the high plasma Cmax and AEs associated with high doses of an IR formulation.

[3] = Clinical study of immediate-release tozadenant: treatment-emergent adverse events, Cmax and Css (Table 18); format: in vivo, human; conditions: for Total AEs/subject / concentration at 14 day / Cmax: immediate-release formulation; for Total Number of AEs: immediate-release formulation (N = 6); for concentration at 14 day / Cmax: human, plasma; for Cmax: read-out: Cmax (ng/mL) at Day 14
Procedure: Advantages of controlled-release formulations compared to immediate-release formulations include: lower incidence of adverse events; improved tolerability; reduced frequency of dosing; and improved compliance due to reduced frequency of dosing.
An example of an efficacious dose of tozadenant is 120 mg of an immediate-release formulation administered twice a day (BID). […] Thus, a CR formulation could be designed to achieve an efficacious Css lower than the plasma levels (Cmax) that result in AEs. An efficacious CR formulation would preferably result in a Css in the range of 0.5-3.0 μg/mL.

COc1ccc(N2CCOCC2)c2sc(NC(=O)N3CCC(C)(O)CC3)nc12 [tozadenant, 4-hydroxy-4-methyl-piperidine-1-carboxylic acid (4-methoxy-7-morpholin-4-yl-benzothiazol-2-yl)-amide]
Bulk density [1]: 0.1948 g/mL | Compressibility index [1]: 35.065 | Fines Portion (# 60 pass portion) [1]: 60.00% | Granular Portion (# 60 Retain portion) [1]: 40.00% | Hausner ratio [1]: 1.5406 | Tapped density [1]: 0.3000 g/mL | Particle size distribution (% Retention) ([1]; ASTM # 20 mesh (841μ)): 0.00% | Particle size distribution (% Retention) ([1]; ASTM # 40 mesh (420μ)): 7.00% | Particle size distribution (% Retention) ([1]; ASTM # 60 mesh (250μ)): 33.00% | Particle size distribution (% Retention) ([1]; ASTM # 80 mesh (177μ)): 18.00% | Particle size distribution (% Retention) ([1]; ASTM # 100 mesh (149μ)): 16.00% | Particle size distribution (% Retention) ([1]; ASTM # 200 mesh (75μ)): 21.00% | Particle size distribution (% Retention) ([1]; Pan): 5.00% | Loss on drying ([1]; at 105° C. for 5 minutes): 0.400 % w/w | Patients discontinuing due to AEs, % ([2]; 60 mg BID): 8% | Patients with no AE, % ([2]; 60 mg BID): 28% | Patients with ≥ 1 AE related to study drug, % ([2]; 60 mg BID (N = 85)): 44% | Patients discontinuing due to AEs, % ([2]; 120 mg BID): 12% | Patients with no AE, % ([2]; 120 mg BID): 26% | Patients with ≥ 1 AE related to study drug, % ([2]; 120 mg BID (N = 82)): 55% | Patients discontinuing due to AEs, % ([2]; 180 mg BID): 12% | Patients with no AE, % ([2]; 180 mg BID): 21% | Patients with ≥ 1 AE related to study drug, % ([2]; 180 mg BID (N = 85)): 55% | Patients discontinuing due to AEs, % ([2]; 240 mg BID): 20% | Patients with no AE, % ([2]; 240 mg BID): 18% | Patients with ≥ 1 AE related to study drug, % ([2]; 240 mg BID (N = 84)): 63% | Cmax at 6 week ([2]; 60 mg BID): 2570 ng/mL | Cmax ([2]; 60 mg BID): 424 ng/mL | Cmax at 6 week ([2]; 120 mg BID): 3910 ng/mL | Cmax ([2]; 120 mg BID): 680 ng/mL | Cmax at 6 week ([2]; 180 mg BID): 5460 ng/mL | Cmax ([2]; 180 mg BID): 999 ng/mL | Cmax at 6 week ([2]; 240 mg BID): 6630 ng/mL | Cmax ([2]; 240 mg BID): 1150 ng/mL | Css ([3]; 120 mg of an immediate-release formulation administered twice a day (BID)): about 2.4 μg/mL | Total AEs/subject ([3]; 120 BID): 0.7 | Total Number of AEs ([3]; 120 BID): 4 | Total AEs/subject ([3]; 240 BID): 4.0 | Total Number of AEs ([3]; 240 BID): 24 | Total AEs/subject ([3]; 240 QD): 2.7 | Total Number of AEs ([3]; 240 QD): 16 | Total AEs/subject ([3]; 480 QD): 5.0 | Total Number of AEs ([3]; 480 QD): 30 | concentration at 14 day ([3]; 120 mg, 120 BID): 2360 ng/mL | Cmax ([3]; 120 mg, 120 BID): 2970 ng/mL | concentration at 14 day ([3]; 240 mg, 240 BID): 4810 ng/mL | Cmax ([3]; 240 mg, 240 BID): 6160 ng/mL | concentration at 14 day ([3]; 240 mg, 240 QD): 2080 ng/mL | Cmax ([3]; 240 mg, 240 QD): 3440 ng/mL | concentration at 14 day ([3]; 480 mg, 480 QD): 3500 ng/mL | Cmax ([3]; 480 mg, 480 QD): 5120 ng/mL
